Patent US20180092923A1, “METHODS FOR TREATING LYSOSOMAL STORAGE DISORDERS” (BIOMARIN PHARMACEUTICAL INC., priority 2015, published 2018)

System: GM01896 cells
Assay: MPS II cellular assay
Assay type: cell-based
Conditions: Homo sapiens, Fibroblast; dermal fibroblasts from an individual with MPS II (GM01896); heparan sulfate disaccharide I2a4, I2a6, I2S0 and/or I2S6 detected by LC-MS
Experimental: Dermal fibroblasts from humans with an MPS disorder and from healthy donors were grown. Cells were expanded and kept in culture for analysis.
Human foreskin fibroblasts are obtained from the American Type Culture Collection (CRL-1634). […] Sulfamidase activity in cell extracts is measured with 4-methylumbelliferyl-α-D-N-sulfoglucosaminide according the vendors instructions substituting Tris-acetate buffer (pH 6.5; Moscerdam). […]
Cell monolayers are washed with phosphate buffered saline and detached by treatment with GIBCO trypsin-EDTA solution (Invitrogen). […] The amount of protein is determined by bicinchoninic acid (BCA assay, Thermo Scientific). […]
Enzymatically depolymerized GAG preparations are differentially mass labeled by reductive amination with [^12C6]aniline. […] Samples are then analyzed by LC-MS using an LTQ Orbitrap Discovery electrospray ionization mass spectrometer (Thermo Scientific) equipped with quaternary HPLC pump (Finnigan Surveyor MS pump) and a reverse-phase capillary column.
For MPS II, GM01896 cells were treated with a compound described herein and the heparan sulfate disaccharide detected was [^12C6]aniline-tagged I2a4, I2a6, I2S0 and/or I2S6. […] Cell viability was monitored using alamar blue or ATP quantification. IC50's were calculated using curve fitting within the ChemInnovation CBIS database system.

Cc1cccc(/C=N/Nc2cc(N3CCOCC3)nc(OCCc3ccccn3)n2)c1 [Compound 11, (E)-4-(6-(2-(3-methylbenzylidene)hydrazinyl)-2-(2-(pyridin-2-yl)ethoxy)pyrimidin-4-yl)morpholine]
IC50: 0.17 µM
